Test results published in patent US11274124B2, “Tubulysin analogues as anticancer agents and payloads for antibody-drug conjugates and methods of treatment therewith” (William Marsh Rice University, priority 2017, dated 2022).

Tests used:
[1] = system: MES SA (uterine sarcoma cell line); assay: In vitro cytotoxicity assay (CellTiter-Glo, 72 hours), MES SA; assay type: cell-based; details: Homo sapiens, MES-SA, 72 h, read-out: MES SA, IC50 Value in nM
[2] = system: HEK 293T (human embryonic kidney cancer cell line); assay: In vitro cytotoxicity assay (CellTiter-Glo, 72 hours), HEK 293T; assay type: cell-based; details: Homo sapiens, HEK-293T, 72 h, read-out: HEK 293T, IC50 Value in nM
[3] = system: MES SA DX (MES SA cell line with marked multi-drug resistance); assay: In vitro cytotoxicity assay (CellTiter-Glo, 72 hours), MES SA DX; details: Homo sapiens, MES-SA, 72 h, read-out: MES SA DX, IC50 Value in nM
[4] = system: MES SA, MES SA DX and HEK 293T cells; assay: In vitro cytotoxicity assay, structure-activity discussion over the cell lines tested; details: refers to Tables 2 and 3

SMILES | IC50 [1] | IC50 [2] | IC50 [3] | cytotoxicity potency (in words, structure-activity discussion) [4]
CCCCN1CCCC[C@@H]1C(=O)N[C@H](C(=O)N(C)[C@H](C[C@@H](OC(C)=O)c1nc(C(=O)N[C@H]2CC[C@H](C(=O)O)CC2)cs1)C(C)C)C(C)C [Tb55, trans-4-[({2-[(1R,3R)-1-Acetoxy-3-{[(2S)-2-({[(2R)-1-butylpiperidin-2-yl]carbonyl}amino)-3-methylbutanoyl](methyl)amino}-4-methylpentyl]-1,3-thiazol-4-yl}carbonyl)amino]cyclohexanecarboxylic acid] | > 1000 nM | > 1000 nM | > 1000 nM | insignificant or low biological activity
CC[C@H](C)[C@H](NC(=O)[C@H]1CCCCN1C)C(=O)N(C)[C@H](C[C@@H](O)c1nc(C(=O)N[C@@H](Cc2ccccc2)C[C@H](C)C(=O)O)cs1)C(C)C [Tb58, (2S,4R)-4-[({2-[(1R,3R)-1-Hydroxy-4-methyl-3-{methyl[(2S,3S)-3-methyl-2-({[(2R)-1-methylpiperidin-2-yl]carbonyl}amino)pentanoyl]amino}pentyl]-1,3-thiazol-4-yl}carbonyl)amino]-2-methyl-5-phenylpentanoic acid] | > 1000 nM | > 1000 nM | > 1000 nM | significant reduction in potency
CC[C@H](C)[C@H](NC(=O)[C@H]1CCCCN1C)C(=O)N(C)[C@H](CC(=O)c1nc(C(=O)N[C@@H](Cc2ccccc2)C[C@H](C)C(=O)O)cs1)C(C)C [Tb59, (2S,4R)-2-Methyl-4-[({2-[(3R)-4-methyl-3-{methyl[(2S,3S)-3-methyl-2-({[(2R)-1-methylpiperidin-2-yl]carbonyl}amino)pentanoyl]amino}pentanoyl]-1,3-thiazol-4-yl}carbonyl)amino]-5-phenylpentanoic acid] | > 1000 nM | > 1000 nM | > 1000 nM | significant reduction in potency
CC(C)[C@H](NC(=O)[C@H]1CCCCN1C)C(=O)N(C)[C@H](C[C@@H](O)c1nc(C(=O)N[C@@H](Cc2ccccc2)C[C@H](C)C(=O)O)cs1)C(C)C [Tb60, (2S,4R)-4-[({2-[(1R,3R)-1-Hydroxy-4-methyl-3-{methyl[(2S)-3-methyl-2-({[(2R)-1-methylpiperidin-2-yl]carbonyl}amino)butanoyl]amino}pentyl]-1,3-thiazol-4-yl}carbonyl)amino]-2-methyl-5-phenylpentanoic acid] | 14 nM | 6.34 nM | > 2500 nM | significant reduction in potency
CC(=O)O[C@H](C[C@H](C(C)C)N(C)C(=O)[C@@H](NC(=O)[C@H]1CCCCN1C)C(C)C)c1nc(C(=O)N[C@@H](Cc2ccccc2)C[C@H](C)C(=O)O)cs1 [Tb61, (2S,4R)-4-[({2-[(1R,3R)-1-Acetoxy-4-methyl-3-{methyl[(2S)-3-methyl-2-({[(2R)-1-methylpiperidin-2-yl]carbonyl}amino)butanoyl]amino}pentyl]-1,3-thiazol-4-yl}carbonyl)amino]-2-methyl-5-phenylpentanoic acid] | 6.07 nM | 5.99 nM | > 1000 nM | exceptional potencies
CC(C)[C@H](NC(=O)[C@H]1CCCCN1C)C(=O)N(C)[C@H](CC(=O)c1nc(C(=O)N[C@@H](Cc2ccccc2)C[C@H](C)C(=O)O)cs1)C(C)C [Tb62, (2S,4R)-2-Methyl-4-[({2-[(3R)-4-methyl-3-{methyl[(2S)-3-methyl-2-({[(2R)-1-methylpiperidin-2-yl]-carbonyl}amino)butanoyl]amino}pentanoyl]-1,3-thiazol-4-yl}carbonyl)amino]-5-phenylpentanoic acid] | > 1000 nM | > 1000 nM | > 1000 nM | significant reduction in potency
